Assay results published in paper PMC12903969, “Discovery of a Novel and Potent Kir4.1 Inhibitor as a Safe and Rapid‐Onset Antidepressant Agent in Mice” (Advanced Science, 2025).
Where two headings read alike, the source gives them in different places.

Tests used:
Kir4.1 = biological target: T1, Kir4.1 (Homo sapiens, UniProt P78508); assay: Whole-cell patch clamp, Kir4.1 currents in transfected CHO-K1 cells; format: cell-based; details: for inhibition at 1 µM: CHO-K1, 1 μM; for inhibition at 10 µM: CHO-K1, 10 μM
T1 construct: host or cells: CHO-K1
T1 sequence (P78508 1-379): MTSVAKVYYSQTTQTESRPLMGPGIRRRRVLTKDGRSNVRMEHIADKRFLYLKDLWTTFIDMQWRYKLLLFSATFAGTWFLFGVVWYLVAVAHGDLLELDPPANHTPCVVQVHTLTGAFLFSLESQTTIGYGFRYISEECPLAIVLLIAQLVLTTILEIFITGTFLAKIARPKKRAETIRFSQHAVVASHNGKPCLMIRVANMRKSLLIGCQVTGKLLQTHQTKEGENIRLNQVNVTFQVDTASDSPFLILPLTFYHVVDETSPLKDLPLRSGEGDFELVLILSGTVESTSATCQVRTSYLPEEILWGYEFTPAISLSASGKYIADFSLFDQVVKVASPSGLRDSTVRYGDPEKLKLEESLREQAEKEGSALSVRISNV
Method: Plasmids encoding WT human potassium channels Kir1.1, Kir2.1, Kir2.2, Kir4.1, and Kir4.2 were obtained from the Beijing Genomics Institute. All point mutations were constructed using the QuickChange II Site‐Directed Mutagenesis Kit (Stratagene) and subsequently verified by sequencing.
CHO‐K1 cells were maintained in DMEM/F12 growth medium containing 10% fetal bovine serum. Plasmids encoding the target genes (3600 ng) and enhanced green fluorescent protein (400 ng) were cotransfected into cells using Lipofectamine 2000 (Invitrogen) in accordance with the manufacturer's instructions. Cells were seeded onto poly‐d‐lysine (PDL)‐coated glass coverslips 1 h prior to electrophysiological recordings. All cells were cultured under standard conditions of 5% CO2 at 37 °C.
Whole‐cell patch‐clamp recordings were obtained either in transiently transfected CHO‐K1 cells or in primary cultured astrocytes at room temperature using standard patch‐clamp techniques with an Axopatch‐700B amplifier (Axon Instruments). The signals were filtered at 2 kHz and sampled at 20 kHz using the Digidata 1440A interface (Axon Instruments). The resistance of borosilicate glass pipettes was typically 2–4 MΩ when filled with the internal solution. Drug application was facilitated using a BPS perfusion system (ALA Scientific Instruments). Macroscopic currents generated by expressed potassium channels were recorded under the voltage‐clamp conditions with an internal pipette solution composed of (in mM): 140 KCl, 5 NaCl, 1 CaCl2, 1 MgCl2, 10 HEPES, and 10 EGTA, pH 7.2 adjusted with KOH. The external solution contained (in mM): 140 NaCl, 5 KCl, 2 CaCl2, 1 MgCl2, 10 glucose, and 10 HEPES, pH 7.4 adjusted with NaOH. Currents were elicited with a hyperpolarized voltage at −120 mV from the holding potential of −80 mV, followed by a ramp voltage depolarizing to +50 mV. Astrocytic resting membrane potentials were recorded under current‐clamp conditions (I = 0 pA) using standard internal and external solutions, determined immediately after achieving whole‐cell mode.

[1] = test system: MDA-MB-468 breast cancer cells; assay: Cytotoxicity test (CCK-8); format: cell-based; details: read-out: IC50 ± SD (μM) for MDA-MB-468 Inhibition
Method: Cytotoxicity of all the tested compounds was determined using the cell counting kit‐8 (CCK‐8) assay kit (Beyotime, Shanghai, China). Briefly, MDA‐MB‐468 was cultured in L15 medium and plated in 96‐well plates at a density of 12,000 cells per well for 24 h at 37 °C in a 5% CO2 incubator. The tested compounds were dissolved in DMSO and diluted with culture medium (DMSO final concentration < 0.4%). Then the cells were treated with compounds (0.41, 1.23, 3.70, 11.11, 33.33, 100.00 µM) for 48 h. After treatments, removal of the supernatant liquor, 100 µL of new media diluted CCK‐8 solution (10% CCK‐8) was added into each well and incubated at 37 °C for 2 h. The absorbance of the mixture was directly measured at 450 nm. The results are presented as a percentage of the control.

[2] = +50 mV, read-out: Kir4.1 Inhibition ± SD (%) at 1 μM, +50 mV
[3] = -120 mV, read-out: Kir4.1 Inhibition ± SD (%) at 1 μM, -120 mV
[4] = +50 mV, read-out: Kir4.1 Inhibition ± SD (%) at 10 μM, +50 mV
[5] = -120 mV, read-out: Kir4.1 Inhibition ± SD (%) at 10 μM, -120 mV
[6] = Homo sapiens, MDA-MB-468, MDA-MB-468 breast cancer cells

| Molecule | Kir4.1 Inhibition ± SD (%) at 1 μM, +50 mV (Kir4.1; +50 mV) [%] | Kir4.1 Inhibition ± SD (%) at 1 μM, -120 mV (Kir4.1; -120 mV) [%] | Kir4.1 Inhibition ± SD (%) at 10 μM, +50 mV (Kir4.1; +50 mV) [%] | Kir4.1 Inhibition ± SD (%) at 10 μM, -120 mV (Kir4.1; -120 mV) [%] | IC50 ([1]; MDA-MB-468 breast cancer cells) [µM] | inhibition at 1 µM (Kir4.1; [2]) [%] | inhibition at 1 µM (Kir4.1; [3]) [%] | inhibition at 10 µM (Kir4.1; [4]) [%] | inhibition at 10 µM (Kir4.1; [5]) [%] | IC50 [1, 6] [µM] | Kir4.1 Inhibition ± SD (%) at 10 μM, +50 mV (Kir4.1; +50 mV, 10 µM) [%] |
| --- | --- | --- | --- | --- | --- | --- | --- | --- | --- | --- | --- |
| c1ccc2c(c1)oc1ccc(NC34C[C@@H]5C[C@@H](CC(NCCCN6CCOCC6)(C5)C3)C4)cc12 [JX3227, (1s,3r,5R,7S)-N^1-(dibenzo[b,d]furan-2-yl)-N^3-(3-morpholinopropyl)adamantane-1,3-diamine] | 9.02 ± 5.70 | 7.11 ± 1.17 | 88.04 ± 4.11 | 64.42 ± 3.05 | > 50 |  |  |  |  |  |  |
| c1ccc2c(c1)oc1ccc(NC3CC4(CCN(CCCN5CCOCC5)CC4)C3)cc12 [JX3228, N-(dibenzo[b,d]furan-2-yl)-7-(3-morpholinopropyl)-7-azaspiro[3.5]nonan-2-amine] |  |  |  |  |  | 18.4 ± 3.79 | 0.88 ± 2.32 | 73 ± 3.72 | 17.1 ± 6.3 | 11.2 ± 0.74 |  |
| N^4-(1H-indol-5-yl)-N^2-(3-morpholinopropyl)pyrimidine-2,4-diamine [JX3207] | 30.53 ± 6.87 | 27.52 ± 8.17 | 93.00 ± 1.73 | 92.47 ± 0.40 | 12.3 ± 1.32 |  |  |  |  |  |  |
| c1ccc2c(c1)oc1ccc(Nc3ccnc(NCCCN4CCCC4)n3)cc12 [JX3239, N^4-(dibenzo[b,d]furan-2-yl)-N^2-(3-(pyrrolidin-1-yl)propyl)pyrimidine-2,4-diamine] |  |  |  |  |  | 53.2 ± 3.51 | 36.4 ± 5.31 | 96 ± 2.25 | 90.9 ± 4.5 | 11.1 ± 0.81 |  |
| Fc1cnc(NCCCN2CCOCC2)nc1Nc1ccc2oc3ccccc3c2c1 [JX3217, N^4-(dibenzo[b,d]furan-2-yl)-5-fluoro-N^2-(3-morpholinopropyl)pyrimidine-2,4-diamine] |  |  |  |  |  |  |  | 11.9 ± 10.1 | 7.77 ± 6.65 | > 50 |  |
| c1ccc2c(c1)oc1ccc(Nc3ccnc(NCCCN4CCSCC4)n3)cc12 [JX3243, N^4-(dibenzo[b,d]furan-2-yl)-N^2-(3-thiomorpholinopropyl)pyrimidine-2,4-diamine] |  |  |  |  |  | -1.39 ± 1.64 | 0.17 ± 1.63 | 98.74 ± 0.36 | 98.6 ± 0.56 | 7.11 ± 0.62 |  |
| c1ccc2c(c1)oc1ccc(Nc3cncc(NCCCN4CCOCC4)n3)cc12 [JX3224, N^2-(dibenzo[b,d]furan-2-yl)-N^6-(3-morpholinopropyl)pyrazine-2,6-diamine] |  |  |  | 87.90 ± 2.73 | 21.6 ± 0.8 | 29.1 ± 11.8 | 11.3 ± 5.07 |  |  |  | 96.66 ± 1.05 |
| c1cc(NC23CC4CC(CC(C4)C2)C3)nc(NCCCN2CCOCC2)n1 [JX3203, N^4-((1s,3s)-adamantan-1-yl)-N^2-(3-morpholinopropyl)pyrimidine-2,4-diamine] |  |  | 64.79 ± 0.85 | 31.27 ± 3.29 | 22.2 ± 5.05 |  |  |  |  |  |  |
| c1ccc2c(c1)oc1ccc(Nc3cncc(NCCCN4CCOCC4)c3)cc12 [JX3221, N^3-(dibenzo[b,d]furan-2-yl)-N^5-(3-morpholinopropyl)pyridine-3,5-diamine] |  |  |  |  |  | -2.41 ± 3.2 | -4.84 ± 3.28 | 96.6 ± 1.14 | 90.4 ± 5.72 | 21.2 ± 1.06 |  |
| c1ccc2c(c1)oc1ccc(Nc3ccnc(OCCCN4CCOCC4)n3)cc12 [JX3231, N-(dibenzo[b,d]furan-2-yl)-2-(3-morpholinopropoxy)pyrimidin-4-amine] |  |  |  |  |  | 7.39 ± 3.45 | 4.14 ± 5.52 | 96.3 ± 1.23 | 90.5 ± 2.35 | 19.7 ± 0.5 |  |
